From patent US8173635B2, “Kinase inhibitors” (Vertex Pharmaceuticals Incorporated, priority 2007, dated 2012)

Legend:
Type in all cases: biochemical
PKC delta kinase = PKC delta kinase (Homo sapiens, UniProt Q05655); test: PKC delta kinase inhibition, coupled-enzyme NADH absorbance assay (Ki); conditions: 150 μM ATP, 46 nM PKC delta, 30° C.; read-out: Ki PKC delta
Description: (§1) An assay buffer solution was prepared which consisted of 100 mM HEPES (pH 7.5), 10 mM MgCl2, 25 mM NaCl, 0.1 mM EDTA and 0.01% Brij. […] To 16 μL of this enzyme buffer, in a 384 well plate, was added 1 μL of VRT stock solution in DMSO. The mixture was allowed to equilibrate for 10 mins at 30° C. […] Ki values were calculated from initial rate data by non-linear regression using the Prism software package (Prism 4.0a, Graphpad Software, San Diego, Calif.).

PKC theta kinase = PKC theta kinase (Homo sapiens, UniProt Q04759); test: PKC theta kinase inhibition, coupled-enzyme NADH absorbance assay (Ki); conditions: 240 μM ATP, 18 nM PKC theta, 30° C.; read-out: Ki PKC theta
Description: as §1, with “To 60” for “To 16”, “added 2” for “added 1”

PKC alpha kinase = PKC alpha kinase (Homo sapiens, UniProt P17252); test: PKC alpha kinase inhibition, coupled-enzyme NADH absorbance assay (Ki); conditions: 130 μM ATP, 4.5 nM PKC alpha, 30° C.; read-out: Ki PKC alpha
Description: as §1, with “EDTA, 100 μM CaCl2” for “EDTA”, “C. The enzyme reaction was initiated by the addition of 16 μL stock ATP solution prepared in assay buffer to a final assay concentration of 130 μM. Initial rate data was determined from the rate of change of absorbance at 340 nm (corresponding to stoichiometric consumption of NADH) using a Molecular Devices Spectramax plate reader (Sunnyvale, Calif.) over 15 mins at 30° C.” for “C.”

Chain of PKC delta kinase (Q05655 whole entry): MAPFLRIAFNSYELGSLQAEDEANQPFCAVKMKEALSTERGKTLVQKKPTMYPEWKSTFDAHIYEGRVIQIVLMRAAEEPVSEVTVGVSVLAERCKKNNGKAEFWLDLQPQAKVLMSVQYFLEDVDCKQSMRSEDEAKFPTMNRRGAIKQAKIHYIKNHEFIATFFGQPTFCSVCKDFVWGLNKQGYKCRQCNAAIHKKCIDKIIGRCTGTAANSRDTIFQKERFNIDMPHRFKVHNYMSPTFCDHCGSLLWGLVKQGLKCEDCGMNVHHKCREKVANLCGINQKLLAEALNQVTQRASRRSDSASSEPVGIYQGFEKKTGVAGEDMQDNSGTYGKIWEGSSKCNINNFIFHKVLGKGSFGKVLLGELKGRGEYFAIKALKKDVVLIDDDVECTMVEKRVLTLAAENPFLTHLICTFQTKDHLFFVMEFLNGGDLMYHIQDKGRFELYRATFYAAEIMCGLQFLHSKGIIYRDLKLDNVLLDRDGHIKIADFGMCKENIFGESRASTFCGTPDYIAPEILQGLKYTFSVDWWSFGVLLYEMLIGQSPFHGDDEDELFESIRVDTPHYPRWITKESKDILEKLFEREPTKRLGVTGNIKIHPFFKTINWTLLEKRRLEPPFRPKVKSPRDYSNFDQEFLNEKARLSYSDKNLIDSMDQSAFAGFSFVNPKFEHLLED
Chain of PKC theta kinase (Q04759 whole entry): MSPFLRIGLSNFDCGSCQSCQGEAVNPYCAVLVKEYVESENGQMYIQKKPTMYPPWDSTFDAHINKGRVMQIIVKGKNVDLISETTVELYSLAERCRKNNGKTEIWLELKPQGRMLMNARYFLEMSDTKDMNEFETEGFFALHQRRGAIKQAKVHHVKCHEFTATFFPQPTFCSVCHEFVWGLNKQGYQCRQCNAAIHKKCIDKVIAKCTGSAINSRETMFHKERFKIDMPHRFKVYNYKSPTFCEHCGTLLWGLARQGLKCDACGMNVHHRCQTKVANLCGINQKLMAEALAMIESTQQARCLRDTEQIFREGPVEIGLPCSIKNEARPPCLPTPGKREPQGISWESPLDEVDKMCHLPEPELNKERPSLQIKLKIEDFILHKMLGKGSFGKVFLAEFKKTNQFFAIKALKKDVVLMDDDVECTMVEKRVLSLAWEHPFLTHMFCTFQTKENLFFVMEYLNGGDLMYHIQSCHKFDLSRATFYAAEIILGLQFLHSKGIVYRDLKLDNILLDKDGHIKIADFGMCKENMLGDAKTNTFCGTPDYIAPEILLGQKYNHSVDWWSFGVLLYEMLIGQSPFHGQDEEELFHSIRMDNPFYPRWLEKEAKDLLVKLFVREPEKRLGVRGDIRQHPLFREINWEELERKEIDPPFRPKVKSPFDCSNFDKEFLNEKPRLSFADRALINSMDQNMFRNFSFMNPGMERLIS

Row | Ki (PKC delta kinase) | Ki (PKC theta kinase) | Ki (PKC alpha kinase) | SMILES
1 | < 50 nM | < 50 nM | < 500 nM | CCCC(C)(CN)c1cccc(-c2ccnc3[nH]ncc23)c1 (stereo not drawn) [Compound 51]
2 | < 2800 nM | < 500 nM | < 2800 nM | CCC(C)(C#N)c1cccc(-c2ccnc3[nH]ncc23)c1 (stereo not drawn) [Compound 64, 2-(3-(1H-pyrazolo[3,4-b]pyridin-4-yl)phenyl)-2-methylbutanenitrile]
3 | < 2800 nM | < 500 nM | < 2800 nM | CCC(C#N)c1cccc(-c2ccnc3[nH]ncc23)c1 (stereo not drawn) [Compound 66]
4 | > 2800 nM | < 2800 nM | < 2800 nM | CCCC(C)(C#N)c1cccc(-c2ccnc3[nH]ncc23)c1 (stereo not drawn) [Compound 69]
5 | < 2800 nM | < 500 nM | < 2800 nM | CC(C)C(C)(C#N)c1cccc(-c2ccnc3[nH]ncc23)c1 (stereo not drawn) [Compound 70]
6 | < 2800 nM | < 2800 nM | < 2800 nM | CC(C)CC(C)(C#N)c1cccc(-c2ccnc3[nH]ncc23)c1 (stereo not drawn) [Compound 71]
7 | > 2800 nM | < 2800 nM | > 2800 nM | CC(C#N)(c1cccc(-c2ccnc3[nH]ncc23)c1)C1CCCC1 (stereo not drawn) [Compound 72]
8 | > 2800 nM | < 500 nM | < 2800 nM | CC(C#N)(CC1CC1)c1cccc(-c2ccnc3[nH]ncc23)c1 (stereo not drawn) [Compound 80]
9 | < 2800 nM | < 500 nM | < 2800 nM | CCC(C)(C#N)c1cc(Cl)cc(-c2ccnc3[nH]ncc23)c1 (stereo not drawn) [Compound 87]
10 | < 2800 nM | < 500 nM | < 2800 nM | CCC(C)(C#N)c1cc(C)cc(-c2ccnc3[nH]ncc23)c1 (stereo not drawn) [Compound 89]
11 | < 2800 nM | < 500 nM | < 2800 nM | C=CCC(C)(C#N)c1cccc(-c2ccnc3[nH]ncc23)c1 (stereo not drawn) [Compound 90]
12 | < 2800 nM | < 500 nM | < 500 nM | C#CCC(C)(C#N)c1cccc(-c2ccnc3[nH]ncc23)c1 (stereo not drawn) [Compound 91]
13 | < 2800 nM | < 500 nM | < 2800 nM | CCC(C)(C#N)c1cc(-c2ccnc3[nH]ncc23)cc(C(F)(F)F)c1 (stereo not drawn) [Compound 93]
14 | > 2800 nM | < 500 nM | > 2800 nM | C/C=C\c1cc(-c2ccnc3[nH]ncc23)cc(C(C)(C#N)CC)c1 (stereo not drawn) [Compound 94]
15 | > 2800 nM | < 500 nM | < 2800 nM | COCC(C)(C#N)c1cccc(-c2ccnc3[nH]ncc23)c1 (stereo not drawn) [Compound 95]
16 | > 2800 nM | < 2800 nM | > 2800 nM | COCCC(C)(C#N)c1cccc(-c2ccnc3[nH]ncc23)c1 (stereo not drawn) [Compound 96]
17 | < 2800 nM | < 500 nM | < 2800 nM | CC(C#N)(CC(F)F)c1cccc(-c2ccnc3[nH]ncc23)c1 (stereo not drawn) [Compound 99]
18 | > 2800 nM | > 210 nM | > 390 nM | CC(C#N)(Cc1ccccc1)c1cccc(-c2ccnc3[nH]ncc23)c1 (stereo not drawn) [Compound 100]
19 | > 2800 nM | < 50 nM | < 2800 nM | CCC(C)(C#N)c1cc(CCO)cc(-c2ccnc3[nH]ncc23)c1 (stereo not drawn) [Compound 101]
20 | > 2000 nM | < 500 nM | < 2800 nM | CCSc1cc(-c2ccnc3[nH]ncc23)cc(C(C)(C#N)CC)c1 (stereo not drawn) [Compound 102]
21 | < 2800 nM | < 500 nM | < 2800 nM | CC#CCC(C)(C#N)c1cccc(-c2ccnc3[nH]ncc23)c1 (stereo not drawn) [Compound 104]
22 | > 2000 nM | < 500 nM | < 2800 nM | CCC(C)(C#N)c1cc(-c2ccnc3[nH]ncc23)cc(C(C)F)c1 (stereo not drawn) [Compound 105]
23 | > 2000 nM | < 500 nM | < 2800 nM | CCC(F)c1cc(-c2ccnc3[nH]ncc23)cc(C(C)(C#N)CC)c1 (stereo not drawn) [Compound 106]
24 | > 2000 nM | < 50 nM | < 500 nM | CCC(C)(C#N)c1cc(-c2ccnc3[nH]ncc23)cc(C(F)F)c1 (stereo not drawn) [Compound 110]
25 | < 2800 nM | < 50 nM | < 500 nM | CCC(C)(C#N)c1cc(-c2ccnc3[nH]ncc23)cc(C(C)(F)F)c1 (stereo not drawn) [Compound 111]

Further lines, the compound ahead of its results:

Row | SMILES | Ki (PKC delta kinase) | Ki (PKC theta kinase) | Ki (PKC alpha kinase)
26 | NCC1(c2cccc(-c3ccnc4[nH]ncc34)c2)CCC1 [Compound 49] | < 500 nM | < 50 nM | < 2800 nM
27 | NCC1(c2cccc(-c3ccnc4[nH]ncc34)c2)CCCC1 [Compound 50] | < 500 nM | < 50 nM | < 2800 nM
28 | C=CCc1cc(-c2ccnc3[nH]ncc23)cc(C(C)(C)CN)c1 [Compound 52] | < 2800 nM | < 500 nM | < 2800 nM
29 | C/C=C/c1cc(-c2ccnc3[nH]ncc23)cc(C(C)(C)C#N)c1 [Compound 54] | > 2800 nM | < 500 nM | > 2800 nM
30 | C=Cc1cc(-c2ccnc3[nH]ncc23)cc(C(C)(C)C#N)c1 [Compound 55] | < 2800 nM | < 500 nM | < 2800 nM
31 | CCCc1cc(-c2ccnc3[nH]ncc23)cc(C(C)(C)C#N)c1 [Compound 57] | > 2800 nM | < 50 nM | < 2800 nM
32 | CC(C)(C#N)c1cc(-c2ccc[nH]2)cc(-c2ccnc3[nH]ncc23)c1 [Compound 59] | > 2800 nM | < 500 nM | > 2800 nM
33 | CCc1cc(-c2ccnc3[nH]ncc23)cc(C(C)(C)C#N)c1 [Compound 62] | > 2800 nM | < 50 nM | < 2800 nM
34 | C=CCc1cc(-c2ccnc3[nH]ncc23)cc(C(C)(C)C#N)c1 [Compound 67] | > 2800 nM | < 500 nM | < 2800 nM
35 | N#CC1(c2cccc(-c3ccnc4[nH]ncc34)c2)CCC1 [Compound 73] | < 2800 nM | < 500 nM | < 2800 nM
36 | N#CC1(c2cccc(-c3ccnc4[nH]ncc34)c2)CCCC1 [Compound 74] | < 2800 nM | < 500 nM | < 2800 nM
37 | CNCc1cc(-c2ccnc3[nH]ncc23)cc(C(C)(C)C#N)c1 [Compound 75] | > 2800 nM | < 2800 nM | > 2800 nM
38 | CC(C)(C#N)c1cc(CN)cc(-c2ccnc3[nH]ncc23)c1 [Compound 76] | > 2800 nM | < 2800 nM | > 2800 nM
39 | CCC(O)c1cccc(-c2ccnc3[nH]ncc23)c1 (stereo not drawn) [Compound 77] | > 2800 nM | < 2800 nM | > 2800 nM
40 | CC(C)(C#N)c1cc(CCCO)cc(-c2ccnc3[nH]ncc23)c1 [Compound 78] | < 2800 nM | < 50 nM | < 2800 nM
41 | CC(O)Cc1cc(-c2ccnc3[nH]ncc23)cc(C(C)(C)C#N)c1 (stereo not drawn) [Compound 79] | > 2800 nM | < 500 nM | > 2800 nM
42 | C=Cc1ccc(-c2ccnc3n[nH]cc23)cc1C(C)(C)C#N [Compound 84] | > 2800 nM | < 2800 nM | > 2800 nM
43 | Cc1cc(-c2ccnc3[nH]ncc23)cc(C2(C#N)CCC2)c1 [Compound 85] | > 2800 nM | < 50 nM | < 2800 nM
44 | CCC(C#N)c1cc(C)cc(-c2ccnc3[nH]ncc23)c1 (stereo not drawn) [Compound 86] | > 2800 nM | < 500 nM | < 2800 nM
45 | CC(F)c1cc(-c2ccnc3[nH]ncc23)cc(C(C)(C)C#N)c1 (stereo not drawn) [Compound 88] | < 2800 nM | < 50 nM | < 2800 nM
46 | N#CC1(c2cc(-c3ccnc4[nH]ncc34)cc(C(F)(F)F)c2)CCC1 [Compound 92] | > 2800 nM | < 500 nM | < 2800 nM
47 | CCCc1cc(-c2ccnc3[nH]ncc23)cc(C2(C#N)CCCC2)c1 [Compound 97] | > 2800 nM | < 500 nM | > 2800 nM
48 | N#CC1(c2cccc(-c3ccnc4[nH]ncc34)c2)CC1 [Compound 98] | < 500 nM | < 50 nM | < 2800 nM
49 | CCC(C)(C#N)c1cc(CCCO)cc(-c2ccnc3[nH]ncc23)c1 (stereo not drawn) [Compound 103] | > 2000 nM | < 50 nM | < 2800 nM
50 | CCC(C)(C#N)c1cc(CCCF)cc(-c2ccnc3[nH]ncc23)c1 (stereo not drawn) [Compound 107] | > 2000 nM | < 500 nM | < 2800 nM
51 | CCC(C)(C#N)c1cc(CCC(F)F)cc(-c2ccnc3[nH]ncc23)c1 (stereo not drawn) [Compound 108] | > 2000 nM | < 500 nM | > 1200 nM
52 | CCC(C)(C#N)c1cc(CCCOC)cc(-c2ccnc3[nH]ncc23)c1 (stereo not drawn) [Compound 109] | > 2000 nM | < 500 nM | < 2800 nM
53 | CC(C)(C)c1n[nH]c2nccc(-c3cc(Br)cc(C(C)(C)C#N)c3)c12 [Compound 112] | > 2000 nM | > 700 nM | > 1200 nM
